In the assay the target is T1, IKK-2 (Homo sapiens, UniProt O14920).
T1 construct: made in house; host or cells: baculovirus-infected insect cells (SF9)
T1 sequence (O14920 1-756): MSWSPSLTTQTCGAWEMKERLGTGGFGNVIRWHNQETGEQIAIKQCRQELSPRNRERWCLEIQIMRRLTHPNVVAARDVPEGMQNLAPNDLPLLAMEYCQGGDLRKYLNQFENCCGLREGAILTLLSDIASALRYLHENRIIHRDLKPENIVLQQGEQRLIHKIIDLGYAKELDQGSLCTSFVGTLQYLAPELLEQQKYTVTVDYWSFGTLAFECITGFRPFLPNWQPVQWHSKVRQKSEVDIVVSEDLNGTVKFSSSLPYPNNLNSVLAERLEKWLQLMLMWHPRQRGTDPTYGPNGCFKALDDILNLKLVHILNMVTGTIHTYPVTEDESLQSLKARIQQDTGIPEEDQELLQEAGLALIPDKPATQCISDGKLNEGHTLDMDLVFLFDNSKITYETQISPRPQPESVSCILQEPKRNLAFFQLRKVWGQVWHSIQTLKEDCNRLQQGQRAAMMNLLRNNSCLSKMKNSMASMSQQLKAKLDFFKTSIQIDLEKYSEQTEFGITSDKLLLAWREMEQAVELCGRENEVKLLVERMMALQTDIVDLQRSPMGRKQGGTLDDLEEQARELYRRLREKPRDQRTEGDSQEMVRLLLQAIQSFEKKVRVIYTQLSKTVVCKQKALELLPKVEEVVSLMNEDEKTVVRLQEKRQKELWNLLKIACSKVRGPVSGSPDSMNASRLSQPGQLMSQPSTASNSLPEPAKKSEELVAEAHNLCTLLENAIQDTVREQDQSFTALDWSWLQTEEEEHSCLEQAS
The experiment in a line: IKK-2 Resin Enzyme Assay (IKK-2 IC50 determination). The assay is classed as biochemical. Conditions: rhIKK-2 homodimer; biotinylated IκBα peptide 5 μM, 1 μM ATP, 25° C., 30 min. The text has this:
cDNAs of human IKK-1 and IKK-2 were amplified by reverse transcriptase-polymerase chain reaction from human placental RNA (Clonetech). hIKK-1 was subcloned into pFastBac HTa (Life Technologies) and expressed as N-terminal His6-tagged fusion protein. The hIKK-2 cDNA was amplified using a reverse oligonucleotide primer which incorporated the peptide sequence for a FLAG-epitope tag at the C-terminus of the IKK-2 coding region (DYKDDDDKD). The hIKK-2:FLAG cDNA was subcloned into the baculovirus vector pFastBac. The rhIKK-2 (S177S, E177E) mutant was constructed in the same vector used for wild type rhIKK-2 using a QuikChange™ mutagenesis kit (Stratagene). Viral stocks of each construct were used to infect insect cells grown in 40L suspension culture. […] Cell lysates were stored at −80° C. until purification of the recombinant proteins was undertaken as described below.
A 10-liter culture of baculovirus-expressing IKK-2 tagged with FLAG peptide was centrifuged and the cell pellet (MOI=0.1 and I=72 hrs) was re-suspended in buffer A. These cells were microfluidized, and centrifuged at 100,000×g for 45 min. Supernatant was passed over a G-25 column equilibrated with Buffer A. Protein peak was collected and incubated with anti-FLAG affinity resin on a rotator overnight in buffer B. The resin was washed in batch with 10-15 bed volumes of buffer C. Washed resin was poured into a column and rhIKK-2 homodimer was eluted using 5 bed volumes of buffer B containing FLAG peptide. 5 mM DTT, 0.1% NP-40 and BSA (concentrated to 0.1% in final amount) was added to the eluted enzyme before concentrating in using an Amicon membrane with a molecular weight cut-off of 30 kDa. Enzyme was aliquoted and stored at −80° C.
IKK-2 kinase activity was measured using a biotinylated IκBα peptide (Gly-Leu-Lys-Lys-Glu-Arg-Leu-Leu-Asp-Asp-Arg-His-Asp-Ser32-Gly-Leu-Asp-Ser36-Met-Lys-Asp-Glu-Glu) (American Peptide Co.). 20 ul of the standard reaction mixture contained 5 μM biotinylated IκBA peptide, 0.1 μCi/reaction [γ-^33P] […] ATP was measured using a Top-Count NXT (Packard).

The term IC50 denotes the point on the concentration scale where inhibition reaches its midpoint.

Compound `Nc1nc(-c2ccccc2O)cn(C2CCCNC2)c1=O` (stereo not drawn) [Example 1, 3-amino-5-(2-hydroxyphenyl)-1-piperidin-3-ylpyrazin-2(1H)-one] returned a half-inhibitory concentration (IC50) of 1080 nM.

`Nc1nc(-c2cc(F)ccc2O)cn(C2CCCNC2)c1=O` (stereo not drawn) [Example 2, 3-amino-5-(5-fluoro-2-hydroxyphenyl)-1-piperidin-3-ylpyrazin-2(1H)-one] came in with an IC50 of 903 nM.

In the case of `Nc1nc(-c2ccc(F)cc2O)cn(C2CCCNC2)c1=O` (stereo not drawn) [Example 3, 3-amino-5-(4-fluoro-2-hydroxyphenyl)-1-piperidin-3-ylpyrazin-2(1H)-one], the IC50 came out at 1790 nM. Against the preceding compound, the IC50 is about 2-fold higher.

For the origin of these results see patent publication US20070225291A1, “Substituted Pyrazinone Compounds for the Treatment of Inflammation” (Pfizer Inc., priority 2003, published 2007).
